Experimental data from patent publication US7166744B2, “Retinoid derivatives and methods for producing said compounds and anti-cancer pharmaceutical composition comprising said compounds” (Chebigen Co., Ltd., priority 2001, dated 2007).
“Also recorded” adds a separate entry of the source.

Tests used:
Format in all cases: cell-based
[1] = test system: CaSki cervix cancer cells; experiment: MTT proliferation assay, CaSki; details: 48 hours, uterine cancer
Procedure: (§1) The effects of test compounds on proliferation of various cancer cells was examined by 3-(4,5-dimethylthiazol-2-yl)-2,5-diphenyltetrazolium bromide (MTT, Sigma) assay in a dose dependent manner. In the MTT assay, colon, liver, cervix, ovary, and breast cancer cell lines were treated with test compounds at various concentrations. Living cancer cells reduce MTT to dark blue MTT formazan that would be measured by absorbance.
(§2) Colon cancer cells, HCT116, DLD-1 and HT29, cervix cancer cells, HeLa and CaSki, ovary cancer cells, SKOV-3, 2774 and OVCAR-3, liver cancer cells, SK-Hep-1, PLCPRF5 and HepG2, and breast cancer cells, ZR75-1 and MDA-MB 231 were seeded at an initial density of 3000 cells per well in 96-well plates. After attachment of cells to the walls of the wells, the medium containing fresh retinoid was treated with various concentrations (0.5 μM, 1 μM, 2.5 μM, 5 μM, 10 μM) for 48 hours. 50 μl of MTT solution (2 mg/ml in PBS) was added to cell culture media. The reaction micture was incubated at 37° C. in a 5% CO2 atmosphere for 4 hours. The supernatant was removed and 150 μl of DMSO was added. The optical density was measured spectrophotometrically at 550 nm. […] For other retinoid derivatives according to the present invention, absorbances were measured by this procedure and IC50 values, concentrations required for 50% growth inhibition, were determined.

[2] = test system: SK-Hep-1 liver cancer cells; experiment: MTT proliferation assay, SK-Hep-1
Procedure: as §1, §2

HepG2 liver cancer cells = experiment: MTT proliferation assay, HepG2
Procedure: as §1, §2

[3] = test system: ZR75-1 breast cancer cells; experiment: MTT proliferation assay, ZR75-1
Procedure: as §1, §2

[4] = test system: HCT116 colon cancer cells; experiment: Trypan blue surviving cell count, HCT116; details: for relative surviving cells (%): trypan blue
From the text: Surviving cells, which had not be stained by trypan blue were counted and the results are shown in Table 3 as relative surviving cells (%).

[5] = test system: HCT116 colon cancer cells; experiment: DNA fragmentation assay (agarose gel), HCT116; details: for fragmentation of chromosomal DNA (agarose gel): Experimental Example 8, cells treated as above; for DNA ladder (DNA fragmentation): HCT116, 2.5, 5.0, 10 μM, 48 hours
Procedure: (§3) After treated with each retinoid derivative at various concentrations (2.5, 5.0, 10 μM) for 48 hours, HCT116 or MCF-7 cells were poured in 1 mL of PBS and centrifuged at a rate of 13,000 rpm at 4° C. for 1 min. The resulting cell pellets were resuspended in 700 μl of lysis buffer (500 mM Tris, 100 mM EDTA, 0.5% SDS) containing 17.5 μl of proteinase K (20 mg/ml), and incubated on 55° C. water bath for 3 hours. The lysates were mixed with 700 μl of phenol solution while slowly stirring and centrifuged at 12,000 rpm for 5 min. The supernatants were separated and extracted with phenol once more. The supernatants were mixed with 600 μl of 100% ethanol and 60 μl of 3M NaOAc (pH 7.0) and left at −20° C. for 2 hours. The supernatants were removed by centrifugation at 12,000 rpm for 10 min to obtain pellets. After 70% ethanol washing and drying, DNA pellet was resuspended in 100 μl of TE (Tris-EDTA) buffer and treated with RNase A. The obtained samples were electrophoresed for 2 hours at 75 V on 1.8% agarose gels.
In order to confirm the above results, DNA was separated from the cells treated as above and examined for DNA fragmentation by agarose gel electrophoresis (FIG. 13).

AP-1 (c-Jun) = experiment: AP-1 CAT reporter assay (c-Jun cotransfection); details: 1 μM; for AP-1 reporter CAT expression, −c-Jun/−RARα: control = 1.0; for AP-1 reporter CAT expression, +c-Jun/+RARα / AP-1 reporter CAT expression, +c-Jun/−RARα: control = 5.0; for suppression of AP-1 activity: Experimental Example 5; for repression of AP-1 activity: Experimental Example 10, text
From the text: As the reporter gene, the CAT enzyme gene with a site recognizing AP-1 of collagenase was used.

RARγ = target: T1, RARγ (Homo sapiens, UniProt P13631); experiment: CAT reporter assay, RARγ; details: 1 μM, control = 1.0; for expression level of CAT enzyme, RARγ −: column '−'
T1 construct: expressed in transfected cells
T1 sequence (P13631 1-454): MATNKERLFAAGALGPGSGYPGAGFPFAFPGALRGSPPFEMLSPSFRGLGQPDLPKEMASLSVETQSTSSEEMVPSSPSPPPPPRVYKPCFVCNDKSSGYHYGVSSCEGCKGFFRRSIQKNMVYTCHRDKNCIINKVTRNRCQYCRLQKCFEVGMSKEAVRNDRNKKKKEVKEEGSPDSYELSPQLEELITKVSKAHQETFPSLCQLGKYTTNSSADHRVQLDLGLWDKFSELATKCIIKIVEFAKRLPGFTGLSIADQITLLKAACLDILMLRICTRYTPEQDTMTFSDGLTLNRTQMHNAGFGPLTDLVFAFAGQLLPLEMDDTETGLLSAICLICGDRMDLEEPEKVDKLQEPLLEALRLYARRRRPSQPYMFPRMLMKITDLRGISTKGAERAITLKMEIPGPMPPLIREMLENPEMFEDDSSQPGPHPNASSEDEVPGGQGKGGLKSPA
From the text: In order to confirm the effect of KCBG60 according to the present invention on retinoid receptor activity, cells were cotransfected with expression vectors of receptor subfamilies and reporter genes. As the reporter gene, chloramphenicol acetyltransferase (CAT) with a transcription control site reactive to respective receptors was used.

[6] = test system: MCF-7 breast cancer cells; experiment: DNA fragmentation assay (agarose gel), MCF-7; details: MCF-7, 2.5, 5.0, 10 μM, 48 hours
Procedure: as §3

[7] = test system: HCT116 colon cancer cells; experiment: DAPI staining of nuclei, HCT116; details: for nuclear condensation and fragmentation (DAPI): HCT116, 5 μM, 36 h; for nuclear condensation (DAPI): HCT116, Experimental Example 8
Procedure: By DAPI (4,6-diamidino-2-phenylindole) staining assay for staining DNA in cellular nucleus, nuclear condensation and fragmentation, characteristic features of apoptosis, were observed. […] In FIG. 4, the control represents non-treated cells. The sub-G1 DNA contents of colon cancer HTC116 cells and breast cancer MCF-7 cells were measured by FACS (Fluorescence-Activated Cell Sorter) assay to quantify the apoptosis (FIG. 5). Finally, in order to further characterize the apoptosis observed in retinoid derivative-treated cells, the cleavage of apoptosis-related proteins, including PARP (poly(ADP-ribose)polymerase) and CPP32 (caspase-3) by Western blotting. […] PARP cleavage occurred in a time-dependent manner, in parallel with the induction of apoptosis (FIG. 6B). C in FIG. 6 represents the result of Western blotting of non-treated cells.
Meanwhile, HPR which is a precursor during the synthesis process of KCBG60 is known to induce apoptosis. Considering that the cells aggregated into small spherical mass upon treatment with KCBG60, KCBG60 is expected to induce apoptosis. In order to confirm apoptosis induced by KCBG60 once again, KCBG60-treated HCT116 cells were stained with DAPI and observed for nuclear condensation, an indicative of apoptosis (FIG. 12).

| Molecule | IC50 [1] [nM] | IC50 ([2]; 48 hours) [µM] | IC50 (HepG2 liver cancer cells; 48 hours) [µM] | IC50 ([3]; 48 hours) [µM] | fragmentation of chromosomal DNA (agarose gel) [5] | AP-1 reporter CAT expression, −c-Jun/−RARα (AP-1 (c-Jun)) | AP-1 reporter CAT expression, +c-Jun/+RARα (AP-1 (c-Jun)) | AP-1 reporter CAT expression, +c-Jun/−RARα (AP-1 (c-Jun)) | expression level of CAT enzyme, RARγ + (RARγ) | expression level of CAT enzyme, RARγ − (RARγ) | relative surviving cells (%) ([4]; HCT116, 0.5 μM) | relative surviving cells (%) ([4]; HCT116, 1 μM) | relative surviving cells (%) ([4]; HCT116, 5 μM) | relative surviving cells (%) ([4]; HCT116, 10 μM) | DNA ladder (DNA fragmentation) [5] | DNA ladder (DNA fragmentation) [6] | nuclear condensation and fragmentation (DAPI) [7] | suppression of AP-1 activity (AP-1 (c-Jun)) [%] | nuclear condensation (DAPI) [7] | repression of AP-1 activity (AP-1 (c-Jun)) | other results |
| --- | --- | --- | --- | --- | --- | --- | --- | --- | --- | --- | --- | --- | --- | --- | --- | --- | --- | --- | --- | --- | --- |
| CC1=C(/C=C/C(C)=C/C=C/C(C)=C/C(=O)O)C(C)(C)CCC1 [ATRA, All-trans-retinoic acid, reference compound] | – | – | – | – | DNA ladder caused by fragmentation of chromosomal DNA was detected | 0.6 | 2.0 | 3.5 | 49.3 | 14.1 | – | – | – | – | – | – | – | – | – | – | IC50 ([1]; Homo sapiens, Ca-Ski): 20000 nM; IC50 ([2]; Homo sapiens, SK-HEP1, 48 hours): > 500 µM; IC50 (HepG2 liver cancer cells; Homo sapiens, HepG2, 48 hours): > 500 µM; IC50 ([3]; Homo sapiens, ZR-75-1, 48 hours): > 500 µM; inhibition at 10 µM ([4]; Homo sapiens, HCT-116, HCT116, 10 μM, read-out: inhibition of proliferation): 10 to 30% |
| CC1=C(/C=C/C(C)=C/C=C/C(C)=C/C(=O)Nc2ccc(O)cc2)C(C)(C)CCC1 [HPR, (2E,4E,6E,8E)-[3,7-dimethyl-9-(2,6,6-trimethylcyclohex-1-enyl)-nona-2,4,6,8-tetraenoylamino]-4-hydroxyphenylamide] | 2000 | > 100 | > 100 | 15 | – | 0.7 | 2.2 | 3.7 | 24.8 | 4.5 | 91 | 70 | 45 | 13 | did not show any DNA ladder | did not show any DNA ladder | largely showed nuclear fragmentation | – | – | – | – |
| CCCC(=O)Oc1ccc(NC(=O)/C=C(C)/C=C/C=C(C)/C=C/C2=C(C)CCCC2(C)C)cc1 [KCBG60] | – | – | – | – | DNA ladder caused by fragmentation of chromosomal DNA was detected | 0.6 | 2.4 | 3.6 | 1.9 | 0.6 | 90 | 75 | 45 | 10 | – | – | – | – | showed small spots, indicating nuclear condensation | about 50% | concentration at which inhibition of proliferation began ([4]; HCT116): 0.5 µM; inhibition of proliferation ([4]; HCT116, 10 μM): more than 90% |
| phenyl butylate | – | – | – | – | did not induce any fragmentation of chromosomal DNA | 1.0 | 5.3 | 4.7 | 1.1 | 0.8 | 103 | 103 | 95 | 90 | – | – | – | – | nuclei were observed normal | did not affect | – |

Now from value to molecule, other results behind:

| IC50 [1] [nM] | IC50 ([2]; 48 hours) [µM] | IC50 (HepG2 liver cancer cells; 48 hours) [µM] | IC50 ([3]; 48 hours) [µM] | Molecule | fragmentation of chromosomal DNA (agarose gel) [5] | AP-1 reporter CAT expression, −c-Jun/−RARα (AP-1 (c-Jun)) | AP-1 reporter CAT expression, +c-Jun/+RARα (AP-1 (c-Jun)) | AP-1 reporter CAT expression, +c-Jun/−RARα (AP-1 (c-Jun)) | expression level of CAT enzyme, RARγ + (RARγ) | expression level of CAT enzyme, RARγ − (RARγ) | relative surviving cells (%) ([4]; HCT116, 0.5 μM) | relative surviving cells (%) ([4]; HCT116, 1 μM) | relative surviving cells (%) ([4]; HCT116, 5 μM) | relative surviving cells (%) ([4]; HCT116, 10 μM) | DNA ladder (DNA fragmentation) [5] | DNA ladder (DNA fragmentation) [6] | nuclear condensation and fragmentation (DAPI) [7] | suppression of AP-1 activity (AP-1 (c-Jun)) [%] | nuclear condensation (DAPI) [7] | repression of AP-1 activity (AP-1 (c-Jun)) | other results |
| --- | --- | --- | --- | --- | --- | --- | --- | --- | --- | --- | --- | --- | --- | --- | --- | --- | --- | --- | --- | --- | --- |
| 500 | 4.5 | > 100 | 2 | CCCC(=O)Oc1cc(O)ccc1NC(=O)/C=C(C)/C=C/C=C(C)/C=C/C1=C(C)CCCC1(C)C [KCBG10, 2.2-[(2E,4E,6E,8E)-3,7-Dimethyl-9-(2,6,6-trimethylcyclohex-1-enyl)-nona-2,4,6,8-tetraenoylamino]-5-hydroxyphenylbutanoate] | – | – | – | – | – | – | – | – | – | – | DNA band of the ladder shape caused by DNA fragmentation was well detected | DNA band of the ladder shape caused by DNA fragmentation was well detected; also recorded: at a low concentration showed DNA fragmentation | largely showed nuclear fragmentation | ~50 | – | – | – |
| 3000 | 0.8 | > 100 | 4.1 | CCCC(=O)Nc1cc(NC(=O)/C=C(C)/C=C/C=C(C)/C=C/C2=C(C)CCCC2(C)C)ccc1O [KCBG41, (2E,4E,6E,8E)-[3,7-dimethyl-9-(2,6,6-trimethylcyclohex-1-enyl)-nona-2,4,6,8-tetraenoylamino]-(3-butyrylamino-4-hydroxy)phenylamide] | – | – | – | – | – | – | – | – | – | – | DNA band of the ladder shape caused by DNA fragmentation was well detected; also recorded: at a similar concentration showed DNA fragmentation | DNA band of the ladder shape caused by DNA fragmentation was well detected | largely showed nuclear fragmentation | ~50 | – | – | – |
